How the values were obtained:
[1] = double bond conversion (C=C% Conversion) by FTIR; details: DIDMA
Method: (§1) To a resin formulation consisting of 15 parts urethane diacrylate, 15 parts DPHPA, 20 parts TPGDA and 40 parts TMPTA was added DIDMA, initiator and (4-octyloxyphenyl)phenyliodonium hexafluoroantimonate (OPPI). The samples were coated to a thickness of 15 microns and exposed to a 75 W tungsten halogen dental lamp (focused through an optical fiber) at a distance of 0.75 inch at which the Light intensity was about 0.40 W/cm^2. The molar ratios are indicative of the amounts of fluorone to onium salt to amine coinitiator. The double bond conversion was determined by FTIR spectroscopy. The pencil hardness of a given test sample is measured by holding a pencil at a 45° angle to the sample and drawing across it towards the person testing it. Using the pencils in an order from softest to hardest, the first pencil that scratches the surface is assigned as the pencil hardness of the sample. The pencil hardness scale is as follows from softest to hardest: 4B, 3B, 2B, B, HB, H, 2H, 3H, 4H, 6H. For instance, if a 2H pencil is the first pencil to scratch the surface then the pencil hardness is 2H.
The foregoing study was repeated using 100% butanediol diacrylate, and 100% polyethylene glycol diacrylate (MW=400)(PEGA 400).

[2] = double bond conversion (C=C% Conversion) by FTIR
Method: as §1

CCCCOc1ccc2cc3cc(I)c(=O)c(I)c-3oc2c1 [DIBF, 5,7-diiodo-3-butoxy-6-fluorone]
C=C% Conversion ([1]; 0.05 wt %, (1:0:60), 30 sec): 30%
C=C% Conversion ([1]; 0.05 wt %, (1:2:3), 30 sec): 49%
C=C% Conversion ([1]; 0.10 wt %, (1:2:3), 30 sec): 56%
C=C% Conversion ([1]; 0.10 wt %, (1:2:3), 60 sec): 56%
C=C% Conversion ([1]; 0.15 wt %, (1:3:3), 30 sec): 58%
C=C% Conversion ([2]; 0.05 wt %, (1:0:60), DIDMA, 30 sec): 37%
C=C% Conversion ([2]; 0.05 wt %, (1:1:60), DIDMA, 30 sec): 37%
C=C% Conversion ([2]; 0.05 wt %, (1:2:0), DIDMA, 30 sec): 5%
C=C% Conversion ([2]; 0.05 wt %, (1:2:3), DIDMA, 30 sec): 40%
C=C% Conversion ([2]; 0.05 wt %, (1:2:3), DIDMA, 60 sec): 43%
C=C% Conversion ([2]; 0.05 wt %, (1:2:3), NPG, 30 sec): 40%
C=C% Conversion ([2]; 0.05 wt %, (1:2:5), DIDMA, 30 sec): 40%
C=C% Conversion ([2]; 0.05 wt %, (1:2:60), DIDMA, 30 sec): 43%
C=C% Conversion ([2]; 0.10 wt %, (1:2:0), DIDMA, 30 sec): 18%
C=C% Conversion ([2]; 0.10 wt %, (1:2:3), DIDMA, 30 sec): 45%
C=C% Conversion ([2]; 0.10 wt %, (1:2:3), DIDMA, 60 sec): 47%
C=C% Conversion ([2]; 0.15 wt %, (1:2:0), DIDMA, 30 sec): 19%
C=C% Conversion ([2]; 0.15 wt %, (1:2:3), DIDMA, 30 sec): 50%
C=C% Conversion ([2]; 0.15 wt %, (1:2:3), DIDMA, 60 sec): 54%
C=C% Conversion ([2]; 0.20 wt %, (1:2:3), DIDMA, 30 sec): 51%
C=C% Conversion ([2]; 0.25 wt %, (1:2:3), DIDMA, 30 sec): 50%

— patent US5623080A, “Fluorone and pyronin Y derivatives” (Spectra Group Limited, Inc., priority 1995, dated 1997)
